Data reported in ChEMBL document CHEMBL1139581, “BCUT descriptors to predicting affinity toward A3 adenosine receptors” (Bioorg Med Chem Lett, 2005).

Molecular target: T1, Adenosine receptor A3 (Rattus norvegicus, UniProt P28647)
T1 sequence (P28647 whole entry): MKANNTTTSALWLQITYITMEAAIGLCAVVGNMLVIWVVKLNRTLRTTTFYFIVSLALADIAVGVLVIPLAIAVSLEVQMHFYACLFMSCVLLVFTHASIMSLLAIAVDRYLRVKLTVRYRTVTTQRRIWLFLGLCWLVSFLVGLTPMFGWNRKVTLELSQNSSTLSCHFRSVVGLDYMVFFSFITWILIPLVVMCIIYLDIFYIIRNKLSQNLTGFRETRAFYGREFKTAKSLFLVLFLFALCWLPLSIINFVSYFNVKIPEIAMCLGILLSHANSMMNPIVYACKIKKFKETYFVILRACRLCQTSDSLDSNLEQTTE
Experiment: Displacement of radioligand [125I]AB-MECA binding at rat A3 receptor expressed in CHO cells
Assay type: cell-based

Ki [nM]	Structure (SMILES)
54.1	CCNC(=O)[C@H]1OC(n2cnc3c(NC(=O)Nc4ccc(S(=O)(=O)Nc5ccccn5)cc4)ncnc32)[C@H](O)[C@@H]1O (some centres not stated)
405	CCNC(=O)[C@@H]1OC(n2cnc3c(NC(=O)Nc4ccc(S(=O)(=O)Nc5ncccn5)cc4)ncnc32)[C@@H](O)[C@H]1O (some centres not stated)
